Legend:
Settings in all cases: PC-3
[1] = target: T1, Ephrin type-A receptor 1 (Homo sapiens) (UniProt P21709); experiment: Inhibition of EphA1 in human PC3 cell lysates at 10 uM using desthiobiotin-tagged ATP probe AX9989 followed by trypsinization by LC/MS analysis
T1 sequence (whole entry): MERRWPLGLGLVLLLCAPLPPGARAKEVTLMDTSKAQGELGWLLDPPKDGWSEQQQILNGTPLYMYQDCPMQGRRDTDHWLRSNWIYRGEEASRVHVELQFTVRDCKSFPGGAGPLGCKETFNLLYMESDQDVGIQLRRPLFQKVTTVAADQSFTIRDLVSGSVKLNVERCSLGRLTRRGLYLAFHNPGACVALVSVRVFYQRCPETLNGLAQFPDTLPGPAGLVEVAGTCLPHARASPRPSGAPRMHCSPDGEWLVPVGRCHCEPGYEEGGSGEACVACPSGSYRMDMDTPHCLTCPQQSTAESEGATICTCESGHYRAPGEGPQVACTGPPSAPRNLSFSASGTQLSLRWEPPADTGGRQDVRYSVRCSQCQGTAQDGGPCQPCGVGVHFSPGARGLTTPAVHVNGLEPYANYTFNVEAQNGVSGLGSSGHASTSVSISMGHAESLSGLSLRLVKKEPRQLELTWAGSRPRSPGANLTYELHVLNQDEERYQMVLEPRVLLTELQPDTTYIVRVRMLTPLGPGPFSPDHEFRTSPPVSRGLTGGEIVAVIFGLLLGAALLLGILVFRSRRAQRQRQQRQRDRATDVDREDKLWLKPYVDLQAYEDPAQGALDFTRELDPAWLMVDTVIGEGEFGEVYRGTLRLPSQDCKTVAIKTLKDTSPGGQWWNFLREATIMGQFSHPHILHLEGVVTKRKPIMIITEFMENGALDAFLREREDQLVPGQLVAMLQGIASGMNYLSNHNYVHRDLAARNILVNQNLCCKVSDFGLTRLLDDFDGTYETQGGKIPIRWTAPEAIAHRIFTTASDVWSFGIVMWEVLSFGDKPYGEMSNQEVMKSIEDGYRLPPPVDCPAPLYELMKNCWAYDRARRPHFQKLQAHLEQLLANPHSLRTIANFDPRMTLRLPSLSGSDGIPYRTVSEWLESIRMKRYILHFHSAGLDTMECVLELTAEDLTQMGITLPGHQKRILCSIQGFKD

[2] = target: T2, Dual specificity mitogen-activated protein kinase kinase 6 (Homo sapiens) (UniProt P52564); experiment: Inhibition of MAP2K6 in human PC3 cell lysates at 10 uM using desthiobiotin-tagged ATP probe AX9989 followed by trypsinization by LC/MS analysis
T2 sequence (whole entry): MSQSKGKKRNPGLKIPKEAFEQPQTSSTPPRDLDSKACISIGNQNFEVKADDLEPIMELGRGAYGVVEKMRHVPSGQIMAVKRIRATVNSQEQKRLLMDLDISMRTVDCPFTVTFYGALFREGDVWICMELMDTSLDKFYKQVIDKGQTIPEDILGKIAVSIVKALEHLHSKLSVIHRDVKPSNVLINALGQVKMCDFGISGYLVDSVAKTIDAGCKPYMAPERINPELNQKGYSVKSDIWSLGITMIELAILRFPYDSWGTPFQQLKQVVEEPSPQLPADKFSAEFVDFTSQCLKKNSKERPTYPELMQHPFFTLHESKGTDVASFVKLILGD

[3] = target: Cyclin-dependent kinase 10 (Homo sapiens) (UniProt Q15131); experiment: Inhibition of CDK10 in human PC3 cell lysates at 10 uM using desthiobiotin-tagged ATP probe AX9989 followed by trypsinization by LC/MS analysis
[4] = target: Protein kinase C beta type (Homo sapiens) (UniProt P05771); experiment: Inhibition of PKCbeta in human PC3 cell lysates at 10 uM using desthiobiotin-tagged ATP probe AX9989 followed by trypsinization by LC/MS analysis
[5] = target: Serine/threonine-protein kinase WNK1 (Homo sapiens) (UniProt Q9H4A3); experiment: Inhibition of Wnk1 in human PC3 cell lysates at 10 uM using desthiobiotin-tagged ATP probe AX9989 followed by trypsinization by LC/MS analysis
[6] = target: Dual specificity mitogen-activated protein kinase kinase 1 (Homo sapiens) (UniProt Q02750); experiment: Inhibition of MAP2K1 in human PC3 cell lysates at 10 uM using desthiobiotin-tagged ATP probe AX9989 followed by trypsinization by LC/MS analysis
[7] = target: p38 delta/gamma (Homo sapiens) (UniProt O15264+P53778); experiment: Inhibition of p38delta/gamma in human PC3 cell lysates at 10 uM using desthiobiotin-tagged ATP probe AX9989 followed by trypsinization by LC/MS analysis; assay type: protein assay

Chain of Cyclin-dependent kinase 10 (Homo sapiens) (Q15131 whole entry): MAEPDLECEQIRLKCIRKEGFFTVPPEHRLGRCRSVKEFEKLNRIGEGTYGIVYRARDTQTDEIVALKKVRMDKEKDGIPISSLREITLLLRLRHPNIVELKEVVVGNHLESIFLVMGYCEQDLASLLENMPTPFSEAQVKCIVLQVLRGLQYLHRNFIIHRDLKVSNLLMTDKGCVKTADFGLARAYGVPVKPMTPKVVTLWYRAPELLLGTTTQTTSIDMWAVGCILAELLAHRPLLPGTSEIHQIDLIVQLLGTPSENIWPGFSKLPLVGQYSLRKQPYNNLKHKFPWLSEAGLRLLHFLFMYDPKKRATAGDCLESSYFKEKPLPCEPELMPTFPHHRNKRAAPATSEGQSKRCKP
Chain of Serine/threonine-protein kinase WNK1 (Homo sapiens) (Q9H4A3 whole entry, looked up): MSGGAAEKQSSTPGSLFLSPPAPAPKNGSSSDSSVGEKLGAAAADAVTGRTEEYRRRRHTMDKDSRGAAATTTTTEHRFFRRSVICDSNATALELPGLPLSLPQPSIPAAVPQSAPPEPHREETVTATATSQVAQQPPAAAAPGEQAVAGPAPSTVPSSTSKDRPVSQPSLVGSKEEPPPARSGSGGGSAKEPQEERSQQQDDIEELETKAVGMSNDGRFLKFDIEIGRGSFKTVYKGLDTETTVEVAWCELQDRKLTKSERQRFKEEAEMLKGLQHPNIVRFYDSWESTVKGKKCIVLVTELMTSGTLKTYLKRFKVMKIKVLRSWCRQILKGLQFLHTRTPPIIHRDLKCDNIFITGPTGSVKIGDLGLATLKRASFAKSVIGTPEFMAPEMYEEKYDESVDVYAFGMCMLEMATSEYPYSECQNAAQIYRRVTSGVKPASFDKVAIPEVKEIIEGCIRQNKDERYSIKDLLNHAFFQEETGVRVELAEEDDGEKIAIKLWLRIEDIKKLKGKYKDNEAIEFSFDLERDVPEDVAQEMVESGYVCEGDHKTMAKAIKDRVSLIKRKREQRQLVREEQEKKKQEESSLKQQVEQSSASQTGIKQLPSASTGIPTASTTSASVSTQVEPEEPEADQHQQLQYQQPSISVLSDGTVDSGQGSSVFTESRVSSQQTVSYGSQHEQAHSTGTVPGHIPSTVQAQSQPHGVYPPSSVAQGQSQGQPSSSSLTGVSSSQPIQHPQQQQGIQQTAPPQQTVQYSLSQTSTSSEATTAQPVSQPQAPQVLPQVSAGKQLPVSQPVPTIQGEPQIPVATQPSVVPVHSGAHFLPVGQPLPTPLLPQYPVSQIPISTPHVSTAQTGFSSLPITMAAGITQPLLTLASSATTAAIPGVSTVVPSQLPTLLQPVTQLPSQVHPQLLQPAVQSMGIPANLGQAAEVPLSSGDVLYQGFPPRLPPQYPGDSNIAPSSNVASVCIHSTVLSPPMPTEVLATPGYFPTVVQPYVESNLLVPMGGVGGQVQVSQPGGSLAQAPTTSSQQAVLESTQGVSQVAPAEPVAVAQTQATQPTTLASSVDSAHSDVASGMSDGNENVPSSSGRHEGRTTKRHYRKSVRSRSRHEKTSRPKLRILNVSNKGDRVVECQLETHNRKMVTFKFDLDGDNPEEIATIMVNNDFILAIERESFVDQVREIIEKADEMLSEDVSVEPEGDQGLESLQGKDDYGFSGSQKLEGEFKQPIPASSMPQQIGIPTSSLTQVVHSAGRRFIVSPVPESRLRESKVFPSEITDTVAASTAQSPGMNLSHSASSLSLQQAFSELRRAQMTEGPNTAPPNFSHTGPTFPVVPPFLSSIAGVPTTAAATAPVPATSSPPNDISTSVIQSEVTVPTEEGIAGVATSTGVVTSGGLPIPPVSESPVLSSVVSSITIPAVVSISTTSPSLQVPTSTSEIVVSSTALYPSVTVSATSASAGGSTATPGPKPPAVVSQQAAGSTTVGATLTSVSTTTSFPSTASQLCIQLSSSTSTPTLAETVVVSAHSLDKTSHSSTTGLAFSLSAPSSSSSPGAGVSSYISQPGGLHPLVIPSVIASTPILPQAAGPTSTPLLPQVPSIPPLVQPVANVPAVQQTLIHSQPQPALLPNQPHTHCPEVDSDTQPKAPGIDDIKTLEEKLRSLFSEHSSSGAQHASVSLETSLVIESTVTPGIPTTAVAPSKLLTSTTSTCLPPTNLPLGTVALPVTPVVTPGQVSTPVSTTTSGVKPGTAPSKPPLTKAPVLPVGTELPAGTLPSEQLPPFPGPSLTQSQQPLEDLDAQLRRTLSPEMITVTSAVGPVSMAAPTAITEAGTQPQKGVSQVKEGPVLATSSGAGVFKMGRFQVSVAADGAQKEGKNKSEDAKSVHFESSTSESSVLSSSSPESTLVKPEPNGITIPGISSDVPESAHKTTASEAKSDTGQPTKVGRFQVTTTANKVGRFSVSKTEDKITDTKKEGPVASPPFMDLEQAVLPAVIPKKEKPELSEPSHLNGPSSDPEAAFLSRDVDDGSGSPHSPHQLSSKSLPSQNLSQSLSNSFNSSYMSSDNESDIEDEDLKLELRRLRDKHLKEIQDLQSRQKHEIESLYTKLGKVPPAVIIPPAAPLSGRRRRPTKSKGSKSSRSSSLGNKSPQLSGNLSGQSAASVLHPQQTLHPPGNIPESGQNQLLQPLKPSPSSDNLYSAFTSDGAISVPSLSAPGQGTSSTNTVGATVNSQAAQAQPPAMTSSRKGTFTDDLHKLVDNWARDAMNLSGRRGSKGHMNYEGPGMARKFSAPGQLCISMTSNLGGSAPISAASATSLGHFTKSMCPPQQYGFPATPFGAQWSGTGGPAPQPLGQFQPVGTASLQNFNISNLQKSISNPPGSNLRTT
Chain of Dual specificity mitogen-activated protein kinase kinase 1 (Homo sapiens) (Q02750 whole entry): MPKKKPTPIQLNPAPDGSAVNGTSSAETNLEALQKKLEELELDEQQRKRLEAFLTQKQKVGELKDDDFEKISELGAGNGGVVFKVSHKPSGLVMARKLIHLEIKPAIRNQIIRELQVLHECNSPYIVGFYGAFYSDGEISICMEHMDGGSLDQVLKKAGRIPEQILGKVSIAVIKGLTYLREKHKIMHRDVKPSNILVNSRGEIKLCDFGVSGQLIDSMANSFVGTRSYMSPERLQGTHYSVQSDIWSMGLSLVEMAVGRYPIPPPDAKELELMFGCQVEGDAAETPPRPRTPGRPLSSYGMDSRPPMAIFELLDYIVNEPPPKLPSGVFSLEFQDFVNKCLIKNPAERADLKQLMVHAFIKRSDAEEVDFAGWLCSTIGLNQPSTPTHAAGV
Chain of Protein kinase C beta type (Homo sapiens) (P05771 2-671 limits assumed): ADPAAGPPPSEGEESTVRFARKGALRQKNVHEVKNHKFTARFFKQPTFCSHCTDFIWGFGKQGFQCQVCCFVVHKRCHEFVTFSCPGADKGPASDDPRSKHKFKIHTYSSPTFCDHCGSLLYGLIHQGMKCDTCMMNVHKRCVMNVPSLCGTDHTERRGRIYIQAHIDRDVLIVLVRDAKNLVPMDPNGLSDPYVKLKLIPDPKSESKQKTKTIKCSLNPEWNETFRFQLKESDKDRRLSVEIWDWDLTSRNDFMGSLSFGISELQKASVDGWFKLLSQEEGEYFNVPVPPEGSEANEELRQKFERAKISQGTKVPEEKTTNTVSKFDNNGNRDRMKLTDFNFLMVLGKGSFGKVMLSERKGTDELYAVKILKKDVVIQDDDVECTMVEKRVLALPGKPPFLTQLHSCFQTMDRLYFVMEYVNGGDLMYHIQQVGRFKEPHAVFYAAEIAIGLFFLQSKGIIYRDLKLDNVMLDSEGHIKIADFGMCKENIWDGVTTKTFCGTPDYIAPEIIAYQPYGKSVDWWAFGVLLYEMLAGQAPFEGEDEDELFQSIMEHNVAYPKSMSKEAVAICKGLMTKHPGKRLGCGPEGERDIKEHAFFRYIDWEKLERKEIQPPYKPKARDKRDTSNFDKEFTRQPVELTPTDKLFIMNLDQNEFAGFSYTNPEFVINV

Row | inhibition [1] [%] | inhibition [2] [%] | inhibition [3] [%] | inhibition [4] [%] | inhibition [5] [%] | inhibition [6] [%] | inhibition [7] [%] | Compound
1 | < 35 | < 35 | 46.6 | < 35 | < 35 | < 35 | < 35 | O=C(N[C@H](CO)c1ccccc1)c1ccc2nc(N[C@H]3CC[C@H](O)CC3)c3nccn3c2c1
2 | < 35 | < 35 | < 35 | < 35 | < 35 | < 35 | < 35 | CC(C)(NC(=O)c1ccc2nc(N[C@H]3CC[C@H](O)CC3)c3nccn3c2c1)c1ccccc1
3 | < 35 | < 35 | 90.4 | < 35 | < 35 | < 35 | 44.4 | NC(=O)c1ccc2nc(N[C@H]3CC[C@H](O)CC3)c3nccn3c2c1
4 | < 35 | < 35 | < 35 | < 35 | < 35 | < 35 | < 35 | CCC[C@@H](NC(=O)c1ccc2nc(N[C@H]3CC[C@H](O)CC3)c3nccn3c2c1)c1ccccc1
5 | < 35 | < 35 | 56.2 | < 35 | < 35 | < 35 | < 35 | C[C@@H](NC(=O)c1ccc2nc(N[C@H]3CC[C@H](O)CC3)c3nccn3c2c1)c1ccccc1
6 | < 35 | < 35 | < 35 | < 35 | < 35 | < 35 | < 35 | O=C(NC1(c2ccccc2)CC1)c1ccc2nc(N[C@H]3CC[C@H](O)CC3)c3nccn3c2c1
7 | < 35 | < 35 | < 35 | < 35 | < 35 | < 35 | < 35 | CC[C@@H](NC(=O)c1ccc2nc(N[C@H]3CC[C@H](O)CC3)c3nccn3c2c1)c1ccccc1
8 | < 35 | < 35 | < 35 | < 35 | < 35 | < 35 | < 35 | O=C(NC1(Cc2ccc(F)cc2)CC1)c1ccc2nc(N[C@H]3CC[C@H](O)CC3)c3nccn3c2c1
9 | < 35 | < 35 | < 35 | < 35 | < 35 | < 35 | < 35 | C[C@H](NC(=O)c1ccc2nc(N[C@H]3CC[C@H](O)CC3)c3nccn3c2c1)c1ccccc1
10 | < 35 | < 35 | 59.1 | < 35 | < 35 | < 35 | < 35 | O=C(NC1(c2ccccc2)CCC1)c1ccc2nc(N[C@H]3CC[C@H](O)CC3)c3nccn3c2c1
11 | < 35 | < 35 | < 35 | < 35 | < 35 | < 35 | < 35 | O=C(NC1(c2ccc(F)cc2)CC1)c1ccc2nc(N[C@H]3CC[C@H](O)CC3)c3nccn3c2c1
12 | < 35 | < 35 | 91.3 | < 35 | < 35 | < 35 | 57.7 | O=C(O)c1ccc2nc(N[C@H]3CC[C@H](O)CC3)c3nccn3c2c1

Source: ChEMBL document CHEMBL2417377, “Hit-to-lead optimization and kinase selectivity of imidazo[1,2-a]quinoxalin-4-amine derived JNK1 inhibitors” (Bioorg Med Chem Lett, 2013)
